# In patent US11464756B1, “Mecuna pruriens, L-DOPA and 5-HTP based dietary supplements, pharmaceutical formulations and uses thereof” (priority 2017, dated 2022):
# Legend:
# serotonin levels = assay: Short term rise of serotonin levels after taking 5-HTP; type: in vivo; settings: short term result of taking 5-HTP
# Protocol: Recently 5-HTP has been introduced to the US market. […] Taking 5-HTP in any of several forms can raise serotonin levels in a natural way by “Filling the Well”. There appears to be both a short term and long term results from taking 5-HTP. Short term there seems to be a ‘burst’ lasting 4-5 hours when levels rise, and long term as the “reservoir” or “water table” rises, to extend the metaphor, we notice that it takes much less 5-HTP to achieve the same result.
# [1] = cited from earlier work
smiles,measurement,setting,value
"N[C@@H](Cc1c[nH]c2ccc(O)cc12)C(=O)O [Example 5-HTP, 5-Hydroxy-tryptophan]",duration of short term 'burst' when levels rise,serotonin levels,4 to 5 h
same,time in which it is decarboxylated in the bloodstream,[1],≤ 45 min
